# Data from the supplement of paper PMC10307832.
# Experiments:
# Assay in all cases: relative viability (nuclei count vs DMSO), 5 days (fraction); higher = more cells survive
# [1] = compound: C[C@@H](Oc1cc(-c2cnn(C3CCNCC3)c2)cnc1N)c1c(Cl)ccc(F)c1Cl [Crizotinib] + Nc1ncn([C@H]2C[C@H](O)[C@@H](CO)O2)c(=O)n1 [Decitabine] (partner 2 µM)
# Procedure, shortened: (§1)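 Nuclei were stained with Hoechst during a one-step fixation (final 0.05% Triton X-100, 1% formaldehyde, 1 ug/ml Hoechst) carried out 5 days after dosing, then counted on 4× images. The cells, lung cancer lines in 1536-well plates, had been dosed by pin tool the day after seeding with one drug alone or a fixed anchor-drug dose plus five library-drug doses (not always all listed) in √10 steps. Relative viability is the nuclei count in treated wells divided by that in vehicle wells, and each value is the median of duplicate plates.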
# [2] = compound: O=C(c1cc(Cc2n[nH]c(=O)c3ccccc23)ccc1F)N1CCN(C(=O)C2CC2)CC1 [Olaparib] + N=C(N)NC(=N)NCCc1ccccc1 [Phenformin] (partner 250 µM)
# Procedure, shortened: as §1
# [3] = compound: CC(C)C[C@H](NC(=O)[C@H](CCc1ccccc1)NC(=O)CN1CCOCC1)C(=O)N[C@@H](Cc1ccccc1)C(=O)N[C@@H](CC(C)C)C(=O)[C@@]1(C)CO1 [Carfilzomib] + Nc1nc2[nH]cc(CCc3ccc(C(=O)N[C@@H](CCC(=O)O)C(=O)O)cc3)c2c(=O)[nH]1 [Pemetrexed] (partner 0.2 µM)
# Procedure, shortened: as §1
# [4] = compound: CC(C)C[C@H](NC(=O)[C@H](CCc1ccccc1)NC(=O)CN1CCOCC1)C(=O)N[C@@H](Cc1ccccc1)C(=O)N[C@@H](CC(C)C)C(=O)[C@@]1(C)CO1 [Carfilzomib] + CS(=O)(=O)CCNCc1ccc(-c2ccc3ncnc(Nc4ccc(OCc5cccc(F)c5)c(Cl)c4)c3c2)o1 [Lapatinib] (partner 2 µM)
# Procedure, shortened: as §1
Cell Line,relative viability ([1]; first compound 0.01 µM),relative viability ([1]; first compound 0.03162 µM),relative viability ([1]; first compound 0.3162 µM),relative viability ([1]; first compound 1 µM),relative viability ([2]; first compound 0.08 µM),relative viability ([2]; first compound 0.253 µM),relative viability ([2]; first compound 2.53 µM),relative viability ([2]; first compound 8 µM),relative viability ([3]; first compound 0.001 µM),relative viability ([3]; first compound 0.003162 µM),relative viability ([3]; first compound 0.01 µM),relative viability ([3]; first compound 0.03162 µM),relative viability ([3]; first compound 0.1 µM),relative viability ([4]; first compound 0.001 µM),relative viability ([4]; first compound 0.003162 µM),relative viability ([4]; first compound 0.01 µM),relative viability ([4]; first compound 0.03162 µM),relative viability ([4]; first compound 0.1 µM),relative viability ([1]; first compound 0.1 µM)
HCC-44,0.959,0.943,0.844,0.915,0.208,0.167,0.271,0.225,0.665,0.605,0.658,0.705,0.685,1.07,0.985,1.16,0.878,0.245,
HCC-78,0.754,0.759,0.593,0.661,0.72,0.66,0.756,0.714,0.876,0.868,0.904,0.967,0.9,0.791,0.701,0.9,0.165,0.142,0.669
HCC-366,0.31,0.294,,0.36,0.768,0.583,0.489,0.413,0.158,0.149,0.2,0.17,0.039,0.941,1.02,0.963,0.305,0.0207,0.406
HCC-827,0.333,0.241,0.306,0.321,0.361,0.372,0.398,0.35,0.252,0.267,0.277,0.254,0.155,0.175,0.164,0.166,0.258,0.154,0.328
HOP-62,0.174,0.22,0.197,0.202,0.783,0.644,0.762,0.478,0.404,0.304,0.417,0.0823,0.063,1.16,1.21,1.06,0.308,0.0688,0.23
IA-LM,,,,,,,,,,,,,,0.846,0.667,0.434,0.0463,0.081,
LC-2-ad,0.846,0.896,,0.81,0.75,0.508,0.533,0.607,0.275,0.302,0.28,0.273,0.232,0.861,1.14,0.984,0.153,0.12,0.809
LCLC-103H,0.672,0.759,0.754,0.723,0.406,0.309,0.36,0.306,0.483,0.459,0.529,0.446,0.404,,,,,,0.737
NCI-H441,0.242,0.238,0.23,0.244,0.824,0.873,0.951,0.706,0.26,0.257,0.244,0.134,0.133,,,,,,0.248
NCI-H522,0.649,0.709,0.657,0.658,0.665,0.722,0.582,0.562,1.19,0.906,0.963,0.717,0.339,,,,,,0.762
NCI-H727,0.763,0.769,0.763,0.796,0.634,0.662,0.556,0.396,,,,,,0.72,0.855,0.61,0.398,0.12,0.836
NCI-H1299,,,,,,,,,,,,,,0.98,1.01,0.982,0.681,0.147,
NCI-H1563,,,,,0.677,0.657,0.681,0.734,0.685,0.773,0.727,0.82,0.498,0.926,1.1,0.927,0.771,0.506,
NCI-H1623,,,,,0.582,0.619,0.497,0.474,,,,,,,,,,,
NCI-H1648,,0.498,0.488,0.452,,,,,0.717,0.671,0.805,0.416,0.263,,,,,,0.401
NCI-H1703,,,,,,,,,,,,,,1.02,1.19,0.207,0.149,0.173,
NCI-H2228,,,,,0.333,0.276,0.287,0.345,0.316,0.364,0.361,0.0862,0.143,1.28,1.23,0.752,0.104,0.161,
NCI-H2342,0.761,0.799,0.723,,0.577,0.503,0.544,0.598,0.732,0.786,0.853,0.78,0.449,,,,,,0.781
SW 900,0.418,0.436,0.449,0.459,0.614,0.525,0.558,0.555,,0.497,0.176,0.152,0.216,,,,,,0.403
